According to patent US5464838A, “Aminocarboxylic acid derivatives having antiallergic/antiasthmatic effect and a process for their preparation” (Asta Medica Aktiengesellschaft, priority 1992, dated 1995):

Tests used:
[1] = test system: histamine-precontracted trachea; assay: histamine-precontracted trachea model (after Foster)
[2] = test system: allergically induced bronchospasm; assay: allergically induced bronchospasm in the guinea pig (modified Konzett-Rossler bronchospasmolysis); assay type: in vivo; conditions: Cavia porcellus, iv, 0.25 h, test substance intravenously, ovalbumin-triggered bronchial constriction 15 minutes later, read-out: inhibitory effect (ID50) in allergically induced bronchospasm
From the text: The compounds of the invention are characterized by good antiallergic and antiasthmatic effect.
The test model used to determine these values was a modification of the bronchospasmolysis experiment described by Konzett and Rossler (1).
The animals were narcoticized with urethane (1.5 g/kg i.p.). Trachea and v. jugularis were exposed by means of a skin incision. A tracheal cannula (Our own construction) was fitted to permit the intravenous application of propanolol, ovalbumin and a test substances, and which also permitted artificial respiration (Starling Pump, Braun Melsungen) and measurement of the intratracheal pressure (pressure uptake: Venous Pressure Transducer, Statham, type W 101 connected to a bridge amplifier, Hellige and Multicorder 6-channel ink plotter, Watanabe, type: WA 621-1). The entire preparation was completed after about 15 minutes. During the subsequent experiment the animals were ventilated with 40 breaths per minute and a volume of about 1 ml room air/100 g body weight. The intratracheal pressure was adjusted by this means to 10-15 cm water column. After a habituation phase of about 30 minutes, the test substances were administered intravenously. Propanolol was administered 10 minutes later. […] The resultant increase in intratracheal pressure was recorded on the plotter for at least 15 minutes.

| IC50 [1] [µM] | SMILES | ED50 [2] [µg/kg] |
| --- | --- | --- |
| 3.86 | CNCCC(CCC(=O)O)n1nc(Cc2ccc(Cl)cc2)c2ccccc2c1=O (stereo not shown) [Example 3, 4-(4-chlorobenzyl)-2-(5-methylamino-1-carboxy-3-pentyl)1(2H) -phthalazinone] | 9.9 |
| 35.5 | CNCCCC(CC(=O)O)n1nc(Cc2ccc(Cl)cc2)c2ccccc2c1=O (stereo not shown) [Example 6, 4-(4-chlorobenzyl)-2-[5-methylamino-1-carboxy-t-2-pentyl]-1(2H) -phthalazinone] | 0.8 |
